Structures can show the parent of a compound that is named as a salt.
How the values were obtained:
[1] = test system: synaptic ribbons in inner hair cells; experiment: Ribbon synapse immunostaining and counting in cochlea, delayed treatment (Example 7); assay type: in vivo, male Wistar rats; details: for Number of pre-synaptic and post-synaptic elements (CtBP2 and Homer) per IHC / Number of colocalized ribbons per IHC: 25 kHz, vs traumatized vehicle and NaCl groups, 2 days and 9 days post-noise; for Number of colocalized ribbons per IHC: statistically significant for Paliroden; for Synapse loss in the inner hair cells (FIG. 8): regions coding high frequency sounds, printed 2 hours and 8 days post-noise
Description: (§1) At T+28 days, after DPOAE/ABR measures, 10 cochlea (all eight (8) left cochleae and two (2) right cochleae taken randomly) per group were rapidly sampled and immediately fixed by PFA perfusion (through the round and oval windows with PFA 4% after creating a small hole at the apex) in order to performed ribbon synapse immunostaining and analysis. Cochleae were fixed for 1 hour in a 4% PFA solution and decalcified in undiluted RDO (10 mL/cochlea for a minimum of 2 hours). The membranous and sensory spiral containing the organ of Corti are dissected out as a flat surface preparation under a dissecting microscope and immunolabelled with appropriate antibodies: • Vglut3 (Vglut3-Guinea Pig IgG; #135 204, Synaptic systems and Anti-Guinea Pig IgG (H+L), #A21450; Thermo Fisher Scientific 647 nm Far-Red) to stain inner hair cell bodies (vesicular glutamate transporter). • Homer (Homer-Rabbit IgG; #GTX103278; Genetex and Anti-Rabbit IgG (H+L) #A11008 Thermo Fisher Scientific 568 nm Red) to stain dendritic proteins of auditory nerve fibers connecting to IHC (post-synaptic). • CtBP2 (CtBP2-Mouse-IgG1; #612044; BD Transduction Laboratories and Anti-Mouse IgG1, #A21121, Thermo Fisher Scientific 488 Green) to stain the ribeye protein as pre-synaptic marker in IHC. • Phalloidin (Alexa Fluor™ Plus 405 Phalloidin; #A30104; Thermo Fisher Scientific 405 Blue).
(§2) Images were acquired on a confocal microscope and the slides were analyzed to i) evaluate by visual observation the presence of OHC and IHC (based on nuclei staining with CtBP2 and HC cell body staining with phalloidin) and ii) count the number of synaptic ribbons in selected inner hair cells in cochlea regions coding sound of selected frequency (16 kHz, 25 kHz and 32 kHz).
(§3) The number of pre- (CtBP2) and post-synaptic (Homer) labeled spots was counted using Imaris software in 3 dimensions for each image. Co-localization of pre- and post-synaptic elements was defined as a distance of maximum […] between CtBP2- and Homer-labeled spots, using an in-house Matlab program to calculate the distances between CtBP2 and Homer labels from the x, y, and z coordinates.

male CBA/CaJ mice = experiment: ABR Wave I amplitude after noise-induced temporary hearing loss (Example 8); assay type: in vivo
Description: Twelve male CBA/CaJ mice were selected and evenly distributed to treatment and control groups, each group comprising 4 mice at the end of the study. Randomization was performed using the ABR threshold in the left ear at 16 kHz as a criterium. The “sham” group consists in mice (n=4) that received neither noise exposure nor trans-tympanic injection. The “Traumatized” group consists in mice (n=4) that received noise exposure only. The “traumatized paliroden” group consists in mice (n=4) that received noise exposure and trans-tympanic injections of a composition comprising paliroden (fumarate salt), corresponding to composition 4P described in Example 2.
All animals (except sham group) received a bilateral noise exposure at a noise band of 8-16 kHz at 95 dB SPL RMS during 2 hours (from time T0 to time T0+2 hours) in awake conditions.
Five microliters of a composition comprising paliroden as active agent were administered once in both ears of each mice of the treatment groups (5 μL per ear) via trans-tympanic administration by injection between the eardrum and the round window by means of a needle which crosses the eardrum, 24 hours post noise exposure, under isoflurane anesthesia. […]

[2] = test system: synaptic ribbons in inner hair cells; experiment: Ribbon synapse immunostaining and counting in cochlea (Example 8); assay type: in vivo, male CBA/CaJ mice
Description: as §1, with “At T+35” for “At T+28”, “measures, all” for “measures, 10”, “cochlea (four (4)” for “cochlea (all eight (8)”, “and four (4)” for “and two (2)”, “right cochleae)” for “right cochleae taken randomly)”
as §2, with “(25, 32” for “(16 kHz, 25 kHz”, “45” for “32”
as §3

Row | SMILES | Number of pre-synaptic and post-synaptic elements (CtBP2 and Homer) per IHC [1] | Number of colocalized ribbons per IHC [1] | Synapse loss in the inner hair cells (FIG. 8) [1] | Recovery of the ABR Wave I amplitudes (male CBA/CaJ mice; 5 weeks post-noise, 16, 25, 32, 40, 45 kHz, paliroden 50 μg/ear one day post-noise) | ABR Wave I amplitude recovery in comparison to traumatized untreated mice, subset analysis (male CBA/CaJ mice; 25, 32, 40 and 45 kHz, p values <0.001) | Number of colocalized ribbons per IHC ([2]; 25 kHz to 40 kHz, not statistically different to sham) | Number of pre-synaptic and post-synaptic elements (CtBP2 and Homer) per IHC ([2]; 32 kHz, vs traumatized untreated, paliroden 50 μg/ear one day post-noise, subset) | Colocalized ribbons per IHC ([2]; 32 kHz, vs traumatized untreated, paliroden 50 μg/ear, subset)
1 | FC(F)(F)c1cccc(C2=CCN(CCc3ccc4ccccc4c3)CC2)c1 [xaliproden (hydrochloride salt), 1-[2-(2-naphthyl)ethyl]-4-(3-trifluoromethylphenyl)-1,2,3,6-tetrahydropyridine] | increase | increase | significantly repair synapse loss |  |  |  |  | 
2 | FC(F)(F)c1cccc(C2=CCN(CCc3ccc(-c4ccccc4)cc3)CC2)c1 [paliroden (fumarate salt), 1-[2-(4-biphenylyl)ethyl]-4-(3-trifluoromethylphenyl)-1,2,3,6-tetrahydropyridine] | increase | increase | significantly repair synapse loss | complete recovery | statistically significant | intermediate between traumatized and control mice | tended to increase | increase

— US20230390273A1, “4-PHENYL-TETRAHYDROPYRIDINE DERIVATIVES FOR TREATING HEARING DISEASES” (CILCARE DEV, priority 2021, published 2023)
